Assay results reported in ChEMBL document CHEMBL3867421, “The action mechanism of daptomycin” (Bioorg Med Chem, 2016).
In brackets after ≈: the same amount, converted by molar mass.

What was measured:
[1] = test system: Bacillus spizizenii; experiment: Antibacterial activity against Bacillus subtilis ATCC 6633 incubated overnight by broth dilution method; assay type: functional
[2] = test system: Bacillus subtilis; experiment: Antibacterial activity against Bacillus subtilis PY79 after 18 hrs by two-fold serial dilution method relative to daptomycin; assay type: functional
[3] = Protein binding in human plasma by UV/HPLC analysis; assay type: ADME, cell-free; conditions: read-out: PPB (converted)
[4] = Membrane permeabilization activity in DOPC/DOPG large unilamellar liposomes assessed as leakage of calcein at 30 ug/ml preincubated with CaCl2 for 1 hr prior to testing; assay type: ADME
[5] = Membrane permeabilization activity in DOPC/DOPG large unilamellar liposomes assessed as leakage of calcein at 16 ug/ml; assay type: ADME
[6] = test system: Staphylococcus aureus; experiment: Antibacterial activity against Staphylococcus aureus relative to daptomycin; assay type: functional
[7] = test system: Bacillus subtilis; experiment: Antibacterial activity against Bacillus subtilis relative to daptomycin; assay type: functional
[8] = test system: Staphylococcus aureus; experiment: Antibacterial activity against vancomycin sensitive Staphylococcus aureus JKD6004 by microbroth dilution assay; assay type: functional
[9] = test system: Staphylococcus aureus; experiment: Antibacterial activity against Staphylococcus aureus JKD6004 harboring WalR K208R mutant by microbroth dilution assay; assay type: functional
[10] = test system: Bacillus subtilis; experiment: Antibacterial activity against Bacillus subtilis ATCC 1046 incubated overnight by broth dilution method; assay type: functional
[11] = test system: Staphylococcus aureus; experiment: Antibacterial activity against Staphylococcus aureus 42 by broth microdilution assay relative to daptomycin; assay type: functional
[12] = test system: Enterococcus faecalis; experiment: Antibacterial activity against Enterococcus faecalis 201 by broth microdilution assay relative to daptomycin; assay type: functional
[13] = test system: Enterococcus faecium; experiment: Antibacterial activity against Enterococcus faecium 14 by broth microdilution assay relative to daptomycin; assay type: functional

For `CCCCCCCCCC(=O)N[C@@H](Cc1c[nH]c2ccccc12)C(=O)N[C@H](CC(N)=O)C(=O)N[C@@H](CC(=O)O)C(=O)N[C@@H]1C(=O)NCC(=O)N[C@@H](CCCNC(=N)CCCSCCC(=O)c2ccc3cc(N(C)C)ccc3c2)C(=O)N[C@@H](CC(=O)O)C(=O)N[C@H](C)C(=O)N[C@@H](CC(=O)O)C(=O)NCC(=O)N[C@H](CO)C(=O)N[C@@H]([C@@H](C)CC(=O)O)C(=O)N[C@@H](CC(=O)c2ccccc2N)C(=O)O[C@@H]1C`, the MIC [1] was 10 mg/L (≈ 5.14 µM).
In the case of `CCCCCCCCCC(=O)N[C@@H](Cc1c[nH]c2ccccc12)C(=O)N[C@@H](CC(N)=O)C(=O)N[C@@H](CC(=O)O)C(=O)N[C@@H]1C(=O)NCC(=O)N[C@@H](CCCCN)C(=O)N[C@@H](CC(=O)O)C(=O)N[C@H](C)C(=O)N[C@@H](CC(=O)O)C(=O)NCC(=O)N[C@H](CO)C(=O)N[C@@H](CCC(=O)O)C(=O)N[C@@H](Cc2c[nH]c3ccccc23)C(=O)O[C@@H]1C`, the “fold change (FC)” value [2] is reported as 33.
In the case of `CCCCCCCCCC(=O)N[C@@H](Cc1c[nH]c2ccccc12)C(=O)N[C@H](CC(N)=O)C(=O)N[C@@H](CC(=O)O)C(=O)N[C@@H]1C(=O)NCC(=O)N[C@@H](CCCN)C(=O)N[C@@H](CC(=O)O)C(=O)N[C@H](C)C(=O)N[C@@H](CC(=O)O)C(=O)NCC(=O)N[C@H](CO)C(=O)N[C@@H]([C@H](C)CC(=O)O)C(=O)N[C@@H](CC(=O)c2ccccc2N)C(=O)O[C@@H]1C` [DAPTOMYCIN], the fraction unbound [3] is reported as 0.1, the Activity [4] is reported as 100% and the Activity [5] is reported as < 10%.
For `CCCCCCCCCC(=O)N[C@@H](Cc1c[nH]c2ccccc12)C(=O)N[C@H](CC(N)=O)C(=O)N[C@@H](CC(=O)O)C(=O)N[C@@H]1C(=O)NCC(=O)N[C@@H](CCCN)C(=O)N[C@@H](CC(=O)O)C(=O)N[C@H](C)C(=O)N[C@@H](CC(=O)O)C(=O)NCC(=O)N[C@H](CO)C(=O)N[C@@H]([C@H](C)CC(=O)O)C(=O)N[C@@H](Cc2ccc(O)cc2)C(=O)O[C@@H]1C`, the “fold change (FC)” value [2] was 47.
For `CCCCCCCCCC(=O)N[C@@H](Cc1c[nH]c2ccccc12)C(=O)N[C@H](CC(N)=O)C(=O)N[C@@H](CC(=O)O)C(=O)N[C@H]1CNC(=O)[C@H](CC(=O)c2ccccc2N)NC(=O)[C@H](CCC(=O)O)NC(=O)[C@@H](CO)NC(=O)CNC(=O)[C@H](CC(=O)O)NC(=O)[C@@H](C)NC(=O)[C@H](CC(=O)O)NC(=O)[C@H](CCCN)NC(=O)CNC1=O`, the “fold change (FC)” value [6] was 200.
In the case of `CCCCCCCCCC(=O)N[C@@H](Cc1c[nH]c2ccccc12)C(=O)N[C@@H](CC(N)=O)C(=O)N[C@@H](CC(=O)O)C(=O)N[C@@H]1C(=O)NCC(=O)N[C@@H](CCCN)C(=O)N[C@@H](CC(=O)O)C(=O)N[C@H](C)C(=O)N[C@@H](CC(=O)O)C(=O)NCC(=O)N[C@H](CO)C(=O)N[C@@H](CCC(N)=O)C(=O)N[C@@H](CC(=O)c2ccccc2N)C(=O)O[C@@H]1C`, the “fold change (FC)” value [2] is reported as 10.
For `CCCCCCCCCC(=O)N[C@@H](Cc1c[nH]c2ccccc12)C(=O)N[C@H](CC(N)=O)C(=O)N[C@@H](CC(=O)O)C(=O)N[C@@H]1C(=O)NCC(=O)N[C@@H](CCCN)C(=O)N[C@@H](CC(=O)O)C(=O)N[C@H](CC(N)=O)C(=O)N[C@@H](CC(=O)O)C(=O)NCC(=O)N[C@H](CO)C(=O)N[C@@H]([C@H](C)CC(=O)O)C(=O)N[C@@H]([C@@H](C)CC)C(=O)O[C@@H]1C`, the “fold change (FC)” value [7] was 32.
With `CCCCCCCCCC(=O)N[C@@H](Cc1c[nH]c2ccccc12)C(=O)N[C@H](CC(N)=O)C(=O)N[C@@H](CC(=O)O)C(=O)N[C@@H]1C(=O)NCC(=O)N[C@@H](CCCN)C(=O)N[C@@H](CC(=O)O)C(=O)N[C@H](CC(N)=O)C(=O)N[C@@H](CC(=O)O)C(=O)NCC(=O)N[C@H](CO)C(=O)N[C@@H](CCC(=O)O)C(=O)N[C@@H](CC(=O)c2ccccc2N)C(=O)O[C@@H]1C` the “fold change (FC)” value [7] was 256.
For `CCCCCCCCCC(=O)N[C@@H](Cc1c[nH]c2ccccc12)C(=O)N[C@@H](CC(N)=O)C(=O)N[C@@H](CC(=O)O)C(=O)N[C@@H]1C(=O)NCC(=O)N[C@@H](CCCN)C(=O)N[C@@H](CC(=O)O)C(=O)N[C@H](C)C(=O)N[C@@H](CC(=O)O)C(=O)NCC(=O)N[C@H](CO)C(=O)N[C@@H]([C@H](C)CC(=O)O)C(=O)N[C@@H](CC(=O)c2ccccc2N)C(=O)O[C@@H]1C` [DAPTOMYCIN], the MIC [8] was 0.5 mg/L (≈ 0.309 µM) and the MIC [9] was 2 mg/L (≈ 1.23 µM).
For `CCCCCCCCCC(=O)N[C@@H](Cc1c[nH]c2ccccc12)C(=O)N[C@H](CC(N)=O)C(=O)N[C@@H](CC(=O)O)C(=O)N[C@@H]1C(=O)NCC(=O)N[C@@H](CCCNc2ccc([N+](=O)[O-])c3nonc23)C(=O)N[C@@H](CC(=O)O)C(=O)N[C@H](C)C(=O)N[C@@H](CC(=O)O)C(=O)NCC(=O)N[C@H](CO)C(=O)N[C@@H]([C@@H](C)CC(=O)O)C(=O)N[C@@H](CC(=O)c2ccccc2N)C(=O)O[C@@H]1C`, the MIC [1] was 3 mg/L (≈ 1.68 µM).
In the case of `CCCCCCCCCC(=O)N[C@@H](Cc1c[nH]c2ccccc12)C(=O)N[C@H](CC(N)=O)C(=O)N[C@@H](CC(=O)O)C(=O)N[C@@H]1C(=O)NCC(=O)N[C@@H](CCCN)C(=O)N[C@@H](CC(=O)O)C(=O)N[C@H](C)C(=O)N[C@@H](CC(=O)O)C(=O)NCC(=O)N[C@H](CC(N)=O)C(=O)N[C@@H]([C@H](C)CC(=O)O)C(=O)N[C@@H]([C@@H](C)CC)C(=O)O[C@@H]1C`, the “fold change (FC)” value [7] is reported as 8.
With `C[C@H]1NC(=O)[C@H](CC(=O)O)NC(=O)[C@H](CCCN)NC(=O)CNC(=O)[C@@H](NC(=O)[C@H](CC(=O)O)NC(=O)[C@@H](CC(N)=O)NC(=O)[C@H](Cc2c[nH]c3ccccc23)NC(=O)CCCc2cc3cccc4c5cccc6cccc(c(c2)c34)c65)[C@@H](C)OC(=O)[C@H](CC(=O)c2ccccc2N)NC(=O)[C@H]([C@@H](C)CC(=O)O)NC(=O)[C@@H](CO)NC(=O)CNC(=O)[C@H](CC(=O)O)NC1=O` the MIC [10] was 3 mg/L (≈ 1.68 µM).
For `CCCCCCCCCC(=O)N[C@@H](Cc1c[nH]c2ccccc12)C(=O)N[C@H](CC(N)=O)C(=O)N[C@@H](CC(=O)O)C(=O)N[C@@H]1C(=O)NCC(=O)N[C@@H](CCCN)C(=O)N[C@@H](CC(=O)O)C(=O)N[C@H](C)C(=O)N[C@@H](CC(=O)O)C(=O)NCC(=O)N[C@H](CC(N)=O)C(=O)N[C@@H](CCC(=O)O)C(=O)N[C@@H](CC(=O)c2ccccc2N)C(=O)O[C@@H]1C`, the “fold change (FC)” value [7] was 64.
With `CCCCCCCCCC(=O)N[C@@H](Cc1c[nH]c2ccccc12)C(=O)NC(CC(N)=O)C(=O)N[C@@H](CC(=O)O)C(=O)N[C@@H]1C(=O)NCC(=O)N[C@@H](CCCN)C(=O)N[C@@H](CC(=O)O)C(=O)N[C@H](C)C(=O)N[C@@H](CC(=O)O)C(=O)NCC(=O)N[C@H](CO)C(=O)N[C@@H]([C@H](C)CC(=O)O)C(=O)N[C@@H](CC(=O)c2ccccc2N)C(=O)O[C@@H]1C` (single isomer, unassigned) the “fold change (FC)” value [11] was 10, the “fold change (FC)” value [12] was 10 and the “fold change (FC)” value [13] was 10.
For `CCCCCCCCCC(=O)N[C@@H](Cc1c[nH]c2ccccc12)C(=O)N[C@H](CC(N)=O)C(=O)N[C@@H](CC(=O)O)C(=O)N[C@@H]1C(=O)NCC(=O)N[C@@H](CCCNC(=O)Cc2c(C)c3cc(S(=O)(=O)O)c(N)cc3oc2=O)C(=O)N[C@@H](CC(=O)O)C(=O)N[C@H](C)C(=O)N[C@@H](CC(=O)O)C(=O)NCC(=O)N[C@H](CO)C(=O)N[C@@H]([C@@H](C)CC(=O)O)C(=O)N[C@@H](CC(=O)c2ccccc2N)C(=O)O[C@@H]1C`, the MIC [1] was 12 mg/L (≈ 6.26 µM).
With `CCCCCCCCCC(=O)N[C@@H](Cc1c[nH]c2ccccc12)C(=O)N[C@@H](CC(N)=O)C(=O)N[C@@H](CC(=O)O)C(=O)N[C@@H]1C(=O)NCC(=O)N[C@@H](CCCN)C(=O)N[C@@H](CC(=O)O)C(=O)N[C@H](C)C(=O)N[C@@H](CC(=O)O)C(=O)NCC(=O)N[C@H](CC(=O)O)C(=O)N[C@@H](CCC(=O)O)C(=O)N[C@@H](CC(=O)c2ccccc2N)C(=O)O[C@@H]1C` the “fold change (FC)” value [2] was >100.
With `CCCCCCCCCC(=O)N[C@@H](Cc1c[nH]c2ccccc12)C(=O)N[C@H](CC(N)=O)C(=O)N[C@@H](CC(=O)O)C(=O)N[C@H]1CNC(=O)[C@H](Cc2c[nH]c3ccccc23)NC(=O)[C@H](CCC(=O)O)NC(=O)[C@@H](CO)NC(=O)CNC(=O)[C@H](CC(=O)O)NC(=O)[C@@H](C)NC(=O)[C@H](CC(=O)O)NC(=O)[C@H](CCCN)NC(=O)CNC1=O` the “fold change (FC)” value [6] was 100.
With `CCCCCCCCCC(=O)N[C@@H](Cc1c[nH]c2ccccc12)C(=O)N[C@@H](CC(N)=O)C(=O)N[C@@H](CC(N)=O)C(=O)N[C@@H]1C(=O)NCC(=O)N[C@@H](CCCN)C(=O)N[C@@H](CC(=O)O)C(=O)N[C@H](C)C(=O)N[C@@H](CC(=O)O)C(=O)NCC(=O)N[C@H](CO)C(=O)N[C@@H](CCC(=O)O)C(=O)N[C@@H](CC(=O)c2ccccc2N)C(=O)O[C@@H]1C` the “fold change (FC)” value [2] was 27.
With `CCCCCCCCCC(=O)N[C@@H](Cc1c[nH]c2ccccc12)C(=O)N[C@@H](CC(N)=O)C(=O)N[C@@H](CC(=O)O)C(=O)N[C@@H]1C(=O)NCC(=O)N[C@@H](CCCN)C(=O)N[C@@H](CC(=O)O)C(=O)N[C@H](C)C(=O)N[C@@H](CC(=O)O)C(=O)NCC(=O)N[C@H](CO)C(=O)N[C@@H](CCC(=O)O)C(=O)N[C@@H](Cc2c[nH]c3ccccc23)C(=O)O[C@@H]1C` the “fold change (FC)” value [2] was 33.
With `CCCCCCCCCC(=O)N[C@@H](Cc1c[nH]c2ccccc12)C(=O)N[C@H](CC(N)=O)C(=O)N[C@@H](CC(=O)O)C(=O)N[C@@H]1C(=O)NCC(=O)N[C@@H](CCCN)C(=O)N[C@@H](CC(=O)O)C(=O)N[C@H](CC(N)=O)C(=O)N[C@@H](CC(=O)O)C(=O)NCC(=O)N[C@H](CO)C(=O)N[C@@H]([C@H](C)CC(=O)O)C(=O)N[C@@H](CC(=O)c2ccccc2N)C(=O)O[C@@H]1C` the “fold change (FC)” value [7] was 16.
